This is an account of results in patent US20230399287A1, “NOVEL COMPOUNDS” (Sitryx Therapeutics Limited, priority 2020, published 2023).

For one series, the system named is IL-1β. Kind of series: THP-1 AlphaLISA IL-1β cytokine assay. It counts as cell-based. The conditions noted are these: for IC50: Homo sapiens, THP-1, differentiated THP-1 cells, LPS 24 hr then Nigericin 1 hour. The essentials:
(§1)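 THP-1 cells differentiated with PMA for 72 h, pre-incubated with compound for 30 min, primed with LPS for 24 h, then given nigericin for 1 h at 37 °C. IL-1β and IL-6 in supernatants were read by AlphaLISA. % inhibition was set against ±LPS controls and IC50 taken from concentration–response curves.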
A general note: Bead proximity is the source of the signal in Alpha formats.

The subject of series [1] is hepatocytes. Kind of series: Hepatocyte stability assay (mouse). The settings on record: 10 μM compound, 60 min. In kind it is in vitro ADME. The essentials:
(§2)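 Cryopreserved human or mouse hepatocytes (0.5×10^6 cells/mL in Leibovitz buffer) were incubated with 10 μM compound (0.1% DMSO) at 37° C in duplicate, alongside a buffer-only control. Samples taken from 0 to 60 min were analysed by LC-MS/MS. Half-life and Clint (μL min^−1 10^−6 cells) came from the ln % remaining versus time slope.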

The nature of series [2]: Hepatocyte stability assay (mouse). It counts as in vitro ADME. The settings on record: mouse, cryopreserved hepatocytes, 10 μM compound, 60 min, read-out: T½. The method, boiled down: as §2
In the next series the test system is IL-6. Kind of series: THP-1 AlphaLISA IL-6 cytokine assay. The settings on record: for IC50: Homo sapiens, THP-1, differentiated THP-1 cells, LPS 24 hr then Nigericin 1 hour. It counts as cell-based. The essentials:
as §1

In the next series the test system is NRF2. Kind of series: NRF2 +/- GSH activation assay (DiscoverX PathHunter NRF2 translocation kit). The settings on record: for EC50: Homo sapiens, U2OS, U2OS PathHunter cells. It counts as cell-based.
Series [3] relates to hepatocytes. Kind of series: Hepatocyte stability assay (human). In kind it is in vitro ADME. The conditions noted are these: 10 μM compound, 60 min. The essentials:
as §2

Series [4] in a line: Hepatocyte stability assay (human). It counts as in vitro ADME. The conditions noted are these: human, cryopreserved hepatocytes, 10 μM compound, 60 min, read-out: T½. The essentials: as §2
[5] abbreviates: THP-1 cells, statement in words.
Setting [6] is: +GSH, normalised to dimethyl fumarate high control.
[7] abbreviates: −GSH, normalised to dimethyl fumarate high control.

Consider `C=C(CC(=O)OC1(c2ccc(C(F)(F)F)cc2)CCC1)C(=O)O` [Example 1, 2-methylene-4-oxo-4-(1-(4-(trifluoromethyl)phenyl)cyclobutoxy)butanoic acid], for which the IC50 (as a rule, the concentration that inhibits the measured activity by half) in the series with IL-1β was 0.8 µM; with IL-6, 62 µM. Moreover, in the series on IL-1β (setting [5]), the “cytokine-lowering potencies for IL-1β compared to dimethyl itaconate, dimethyl fumarate and 4-octyl itaconate” value is “much improved cytokine-lowering potencies”. The Clint with hepatocytes [1] was found to be 13 μL min^−1 10^−6 cells; with hepatocytes [3] it was 11 μL min^−1 10^−6 cells. Moreover, the results for the half-life at 10 μM in series [2] and in series [4] were 2.52 h and 1.93 h, respectively. In addition, the “cytokine-lowering potencies for IL-6 compared to dimethyl itaconate” value in the series with IL-6 (setting [5]) is given as “improved cytokine-lowering potencies”. Besides, the Emax (commonly the greatest response seen or fitted, relative to the assay's reference) in the series with NRF2 (+GSH, data from repeated experiments) turned out to be 14%; in the series on NRF2 (setting [6]) it was 10%; in the series with NRF2 (−GSH, data from repeated experiments), 17%; with NRF2 (setting [7]), 37%. Also, the EC50 with NRF2 (+GSH) and in the series on NRF2 (−GSH) was greater than 100 µM throughout.
For `C=C(CC(=O)OC(C)(C)c1ccc(C(F)(F)F)cc1)C(=O)O` [Example 2, 2-methylene-4-oxo-4-((2-(4-(trifluoromethyl)phenyl)propan-2-yl)oxy)butanoic acid], the IC50 in the series with IL-1β was 0.8 µM; in the series with IL-6 it was greater than 63.1 µM. For the same compound, the results for the Clint in the series on hepatocytes [1] and in the series with hepatocytes [3] were 35 μL min^−1 10^−6 cells and 8 μL min^−1 10^−6 cells, respectively. In addition, the half-life at 10 μM in series [2] came to 0.583 h; in series [4], 2.83 h. Moreover, the Emax in the series with NRF2 (setting [6]) and in the series on NRF2 (setting [7]) was 0% throughout. For the same compound, the EC50 in the series with NRF2 (+GSH) and with NRF2 (−GSH) was greater than 100 µM in each case.
Take `C=C(CC(=O)OC1(c2ccc(C(F)(F)F)cc2)CCCC1)C(=O)O` [Example 7, 2-methylene-4-oxo-4-((1-(4-(trifluoromethyl)phenyl)cyclopentyl)oxy)butanoic acid]: the results for the IC50 in the series with IL-1β and in the series with IL-6 were 3.7 µM and greater than 100 µM, respectively. For the same compound, the Clint in the series on hepatocytes [1] worked out at 14 μL min^−1 10^−6 cells; with hepatocytes [3], 20 μL min^−1 10^−6 cells. Besides, the results for the half-life at 10 μM in series [2] and in series [4] were 1.97 h and 1.1 h, respectively. The Emax worked out at 0% with NRF2 (setting [6]) and 6% in the series on NRF2 (setting [7]). In addition, the EC50 in the series with NRF2 (+GSH) and in the series on NRF2 (−GSH) was greater than 100 µM throughout.
As for `C=C(CC(=O)OC1(c2ccc(Cl)cc2)CCC1)C(=O)O` [Example 8, 4-(1-(4-chlorophenyl)cyclobutoxy)-2-methylene-4-oxobutanoic acid], the IC50 in the series on IL-1β turned out to be 2.6 µM; in the series on IL-6 it was 64.5 µM. Also, the Clint in the series with hepatocytes [1] worked out at 26 μL min^−1 10^−6 cells; in the series with hepatocytes [3], 11 μL min^−1 10^−6 cells. For the same compound, the half-life at 10 μM in series [2] was determined as 1.08 h; in series [4] it was 2.07 h. Moreover, the Emax with NRF2 (setting [6]) is 0%; in the series with NRF2 (setting [7]) it was 24%. The EC50 in the series with NRF2 (+GSH) and in the series with NRF2 (−GSH) was greater than 100 µM each time.
As for `C=C(CC(=O)OC1(c2ccc(SC(F)(F)F)cc2)CCC1)C(=O)O` [Example 9, 2-methylene-4-oxo-4-(1-(4-((trifluoromethyl)thio)phenyl)cyclobutoxy)butanoic acid], the IC50 in the series on IL-1β was 2.8 µM; in the series with IL-6, greater than 100 µM. Also, the Clint in the series on hepatocytes [1] was determined as 44 μL min^−1 10^−6 cells; in the series with hepatocytes [3], 15 μL min^−1 10^−6 cells. The half-life at 10 μM in series [2] worked out at 0.633 h; in series [4], 1.52 h. Also, the Emax was found to be 6% in the series with NRF2 (setting [6]) and 14% in the series with NRF2 (setting [7]). Moreover, the EC50 in the series on NRF2 (+GSH) and with NRF2 (−GSH) was greater than 100 µM throughout.
Consider `C=C(CC(=O)OC1(c2ccc(C(F)(F)F)cc2)CC1)C(=O)O` [Example 11, 2-methylene-4-oxo-4-(1-(4-(trifluoromethyl)phenyl)cyclopropoxy)butanoic acid], for which the IC50 with IL-1β was 1.4 µM; in the series with IL-6 it was greater than 100 µM. The Clint in the series with hepatocytes [1] is recorded as 24 μL min^−1 10^−6 cells; with hepatocytes [3], 6 μL min^−1 10^−6 cells. Further, the values for the half-life at 10 μM in series [2] and in series [4] were 1.18 h and 3.62 h, respectively. The Emax in the series with NRF2 (setting [6]) came out at 0%; in the series on NRF2 (setting [7]), 11%. Also, the concentration giving a half-maximal response (EC50) in the series with NRF2 (+GSH) and in the series with NRF2 (−GSH) was greater than 100 µM in each case.
With `C=C(CC(=O)OC1(c2ccc(C(F)(F)F)c(Cl)c2)CCC1)C(=O)O` [Example 12, 4-(1-(3-chloro-4-(trifluoromethyl)phenyl)cyclobutoxy)-2-methylene-4-oxobutanoic acid], the concentration for half-maximal inhibition (IC50) with IL-1β came to 4.5 µM; in the series on IL-6, 82.6 µM. The Clint in the series with hepatocytes [1] is recorded as 42 μL min^−1 10^−6 cells; in the series with hepatocytes [3], 46 μL min^−1 10^−6 cells. The half-life at 10 μM in series [2] was found to be 0.75 h; in series [4], 0.617 h. In addition, the Emax in the series on NRF2 (setting [6]) stood at 46%; in the series on NRF2 (setting [7]), 66%. Moreover, the EC50 (usually the midpoint of the concentration-response curve) with NRF2 (+GSH) was greater than 100 µM; with NRF2 (−GSH), 81.6 µM.
Turning to `C=C(CC(=O)OCc1ccc(C(F)(F)F)cc1)C(=O)O` [Example 13, 2-methylene-4-oxo-4-((4-(trifluoromethyl)benzyl)oxy)butanoic acid], the figures for the half-maximal inhibitory concentration (IC50) in the series with IL-1β and in the series with IL-6 were 5.9 µM and greater than 100 µM, respectively. The results for the Clint with hepatocytes [1] and in the series on hepatocytes [3] were 42 μL min^−1 10^−6 cells and less than 3 μL min^−1 10^−6 cells, respectively. In addition, the results for the half-life at 10 μM in series [2] and in series [4] were 0.617 h and greater than 7.67 h, respectively. The maximal response (Emax) with NRF2 (setting [6]) is 25%; in the series with NRF2 (setting [7]) it was 54%. For the same compound, the EC50 is greater than 100 µM in the series on NRF2 (+GSH) and 38.7 µM with NRF2 (−GSH).
As to `C/C(=C\C(=O)OC1(c2ccc(C(F)(F)F)cc2)CCC1)C(=O)O` [Example 21, (E)-2-methyl-4-oxo-4-(1-(4-(trifluoromethyl)phenyl)cyclobutoxy)but-2-enoic acid], the figures for the IC50 with IL-1β and in the series on IL-6 were 7.3 µM and 49.7 µM, respectively. Moreover, the figures for the Clint in the series on hepatocytes [1] and with hepatocytes [3] were 71 μL min^−1 10^−6 cells and 31 μL min^−1 10^−6 cells, respectively. The half-life at 10 μM stood at 0.45 h in series [2] and 0.917 h in series [4]. Further, the Emax in the series on NRF2 (setting [6]) was determined as 4%; in the series on NRF2 (setting [7]), 0%. The EC50 with NRF2 (+GSH) and in the series on NRF2 (−GSH) was greater than 100 µM in each case.
As to `C=C(CC(=O)OC1(c2ccc(Br)cn2)CCC1)C(=O)O` [Example 50, 4-(1-(5-bromopyridin-2-yl)cyclobutoxy)-2-methylene-4-oxobutanoic acid], the concentration for half-maximal inhibition (IC50) was 1.5 µM with IL-1β and greater than 100 µM with IL-6. The Clint in the series on hepatocytes [1] is 4 μL min^−1 10^−6 cells; in the series on hepatocytes [3] it was less than 3 μL min^−1 10^−6 cells. In addition, the results for the half-life at 10 μM in series [2] and in series [4] were 7 h and greater than 7.67 h, respectively.
In the case of `C=C(CC(=O)OC1(c2ccc(Cl)cn2)CCC1)C(=O)O` [Example 51, 4-(1-(5-chloropyridin-2-yl)cyclobutoxy)-2-methylene-4-oxobutanoic acid], the results for the IC50 in the series with IL-1β and with IL-6 were 6.4 µM and greater than 31.6 µM, respectively. The Clint in the series on hepatocytes [1] and with hepatocytes [3] was less than 3 μL min^−1 10^−6 cells throughout. Further, the half-life at 10 μM in series [2] and in series [4] was greater than 7.67 h throughout.
In the case of `C=C(CC(=O)OC1(c2ncc(C(F)(F)F)cn2)CCC1)C(=O)O` [Example 52, 2-methylene-4-oxo-4-(1-(5-(trifluoromethyl)pyrimidin-2-yl)cyclobutoxy)butanoic acid], the concentration for half-maximal inhibition (IC50) with IL-1β was 11.7 µM; in the series with IL-6, greater than 100 µM. The Clint in the series with hepatocytes [1] is 5 μL min^−1 10^−6 cells; with hepatocytes [3], less than 3 μL min^−1 10^−6 cells. The values for the half-life at 10 μM in series [2] and in series [4] were 5.12 h and greater than 7.67 h, respectively.
For the compound `C=C(CC(=O)OC(C)(C)c1ccc(C(F)(F)F)cn1)C(=O)O` [Example 57, 2-methylene-4-oxo-4-((2-(5-(trifluoromethyl)pyridin-2-yl)propan-2-yl)oxy)butanoic acid], the IC50 was 6.6 µM in the series on IL-1β and greater than 31.6 µM with IL-6. The Clint was 10 μL min^−1 10^−6 cells in the series with hepatocytes [1] and less than 3 μL min^−1 10^−6 cells with hepatocytes [3]. Moreover, the half-life at 10 μM in series [2] was 2.52 h; in series [4] it was greater than 7.67 h.
For the compound `C=C(C(=O)O)C(C)(C)C(=O)OC1(c2ccc(C(F)(F)F)cn2)CCC1` [Example 59, 3,3-dimethyl-2-methylene-4-oxo-4-(1-(5-(trifluoromethyl)pyridin-2-yl)cyclobutoxy)butanoic acid], the results for the IC50 in the series with IL-1β and in the series with IL-6 were 2.9 µM and greater than 31.6 µM, respectively. The results for the Clint in the series on hepatocytes [1] and in the series on hepatocytes [3] were less than 3 μL min^−1 10^−6 cells and 11 μL min^−1 10^−6 cells, respectively. The half-life at 10 μM was greater than 7.67 h in series [2] and 2.3 h in series [4].
As to `C=C(CC(=O)OC1(c2ccc(C(F)(F)F)cc2)CC2(CC2)C1)C(=O)O` [Example 61, 2-methylene-4-oxo-4-((5-(4-(trifluoromethyl)phenyl)spiro[2.3]hexan-5-yl)oxy)butanoic acid], the IC50 in the series on IL-1β was 5.5 µM; with IL-6, greater than 100 µM. Also, the values for the Clint in the series with hepatocytes [1] and with hepatocytes [3] were 21 μL min^−1 10^−6 cells and 6 μL min^−1 10^−6 cells, respectively. Further, the half-life at 10 μM in series [2] stood at 1.72 h; in series [4] it was 3.58 h.
